According to US20040152631A1, “Methods for manipulating ejaculatory reflex and sensation of ejaculation and for treating sexual dysfunction” (priority 2002, published 2004):
Where “and” joins values, the source holds several entries; their conditions need not be identical. Identical values can stand only once.

Legend:
[1] = system: LSt neurons; assay: Cell counts (galanin-IR, SPR-IR, NeuN-IR) in L3-L4 spinal cord after intraspinal SSP-SAP or SAP; format: in vivo; details: complete = galanin-IR LSt neurons less than 1/3 of untreated rats
From the text: First a membrane target located on the LSt neurons is identified. […] Identification of the SPR receptor on LSt cells enable the use of the targeted toxin SSP-SAP, which consists of the ribosome inhibitor protein toxin saporin (SAP) conjugated to a substance P analogue (SSP) with high affinity for SPR. SSP-SAP is infused into the L3-4 spinal cord at the location of the LSt cells in sexually experienced or sexually naive male rats. Male rats are allowed to mate with a receptive female during 6 pre-operative sessions (3 ejaculations or 100 minutes each).
All procedures are approved by the Animal Care and use Committee of the University of Cincinnati, Ohio and conformed to NIH guidelines involving vertebrate animals in research. Male rats are deeply anesthetized using ketamine/xylazine and laminectomy of L3 and L4 is performed. […]
Control animals are injected with non-conjugated equimolar concentrations of SAP. […] Latencies and numbers of mounts, intromissions, and ejaculations are recorded, and vaginas of females are checked for seminal plugs multiple times during mating tests. […]
Non-specific lesioning is determined by counting neurons visualized by neuronal marker N-IR. SPR containing cells are also counted in a standard area in the dorsal horn, as illustrated in FIG. 2A (area 2), to determine if lesioning is restricted to the area surrounding the central canal. […]

[2] = system: LSt neurons; assay: Sexual behavior tests after lesion surgery; format: in vivo, male rats; details: 6 post-surgery tests, 100 minutes with receptive female
Method: (§1) Control animals are injected with non-conjugated equimolar concentrations of SAP. […] Rats with obvious motor impairment after surgery (n=10; 7 injected with SAP; 3 injected with SSP-SAP) are excluded from the study. Sexual behavior is first tested 10 days after lesion surgery, and during 5 subsequent twice-weekly tests. The trials are performed during the dark phase of the light cycle and consisted of the male rat being placed into the testing cage for 100 minutes with a receptive female. Stimulus females were ovariectomized and implanted subcutaneously (s.c.) with 5% 17-beta-estradiol benzoate silastic capsules. Progesterone (500 μg in 0.1 ml of sesame oil) was injected (s.c.) 4-6 hours prior to testing to induce sexual receptivity. Latencies and numbers of mounts, intromissions, and ejaculations are recorded, and vaginas of females are checked for seminal plugs multiple times during mating tests.
The effects of LSt lesions on display of sexual behavior are assessed in the three groups described above. LSt lesions have a dramatic effect on sexual behavior. […] Furthermore, ablation of LSt neurons appears to selectively block ejaculatory behavior while not affecting other components of sexual behavior.

[3] = Motor impairment after surgery; format: in vivo; details: number of SAP-injected control rats excluded; 10 excluded in total (3 SSP-SAP)
Method: as §1

[4] = system: LSt neurons; assay: Optical density of galanin-IR and SPR-IR around IML, CAN and SPN after LSt lesion; format: in vivo, rats
From the text: In these areas galanin-IR is present in fibers, while SPR-IR is located in neurons and fibers. […] In contrast, SPR-IR is not reduced following LSt lesions.
Following the final behavior test, animals are perfused intracardially with 4% paraformaldehyde and spinal cord tissue is collected for further processing. Spinal cords are cut into 35μm coronal sections and collected in 12 parallel series. Adjacent sections are stained for galanin, SPR or neuronal marker N using the general procedures as described in W. Truitt, M. Shipley, J. Veening, L. Coolen, J. Neurosci (2002). The primary antibodies and concentrations that are used include: Galanin—rabbit anti-galanin at 1:80,000 (PenLabs), Substance P receptor—rabbit anti-NK1 at 1:1,000 (Advanced Targeting Systems), and Neuronal marker N—mouse anti-NeuN at 1:10,000 (Chemicon).

[5] = system: male rats; assay: Copulatory behavior after 8-OH-DPAT; format: in vivo; details: 0.8 mg/kg s.c. 30 minutes before test; E1-DP rats, n=3
Method: All male and female rats are sexually experienced. […] The female rats are bilaterally ovariectomized two weeks prior to testing. Sexual receptivity is induced using a standard regimen of exogenous estrogen and progesterone, similar to that used for the stimulus females, described above. One week before testing females receive hormone treatment and mating experience with sexually experienced male partners. All testing of experimental groups is performed four hours after onset of the dark period, in a rectangular mating arena (60-45-50 cm), under dim red illumination. After completion of the mating tests, the sexual partners are removed, and experimental animals remained in the test cage for an additional 60 minutes until sacrifice.
The number of mounts, intromissions and total duration of the tests, are recorded for analysis of copulatory behavior. Numbers of mounts and intromissions, as well as duration of test are compared using a one-way ANOVA. Post hoc comparisons are made using the Scheffe test with an alpha of 0.05 required for rejection of the null hypothesis.
The purpose of this example is to investigate neural activation of lumbar spinal cord in male rats that display minimal sexual activity prior to ejaculation. Therefore, male rats are treated with 8-hydroxy-2-(di-n-propylamino) tetralin (8-OH-DPAT), which decreases the number of mounts and intromissions prior to ejaculation. […]

[6] = system: LSt neurons; assay: Fos-IR in galanin-IR LSt neurons after 8-OH-DPAT; format: in vivo, male rats; details: 0.8 mg/kg s.c.
Method: Activation of LSt neurons is assessed using Fos immunoreactivity (IR) as a marker for neural activation and galanin or CCK-IR to identify LSt cells.
One hour following the end of the behavioral test, animals are anesthetized using sodium pentobarbital (200 mg/kg; i.p.) and perfused transcardially with 100 ml 0.9% saline, followed by 500 ml of 4% paraformaldehyde in 0.1 M sodium phosphate buffer (PB, pH 7.3-7.4). Brain and spinal cords are removed and post fixed for 1 hr at room temperature in the fixative. Coronal sections of thoracic (T), lumbar (L) and sacral (S) spinal cord (T10-S4) are cut at 35 μm on a Microm freezing microtome (Richard Allen, Kalamazoo, Mich.) and collected in twelve parallel series in cryorotectant solution (30% sucrose, 30% ethylene glycol in 0.1 M PB; Watson et al, 1985). In addition, coronal sections ( 35 µm) through thalamus are cut and stored in four parallel series.
All incubations are performed at room temperature with gentle agitation. Series of spinal cord sections ([…]) are rinsed extensively in phosphate buffered saline (PBS) between incubations. Free-floating sections are blocked with 1% H2O2 for 10 min at room temperature and then soaked for one hour in incubation solution (PBS containing 0.1% bovine serum albumin and 0.4% triton X-100). Next, sections are incubated overnight with a primary antiserum in incubation solution to recognize Fos (polyclonal anti-Fos antiserum raised in rabbit; 1:10,000; Santa Cruz, Santa Cruz, Calif.). […]
Analysis of labeling for galanin or CCK, Fos, and dual labeling for Fos and Galanin or CCK, is performed on a Leica light microscope at 4×-40× magnification. Neurons single labeled for galanin or CCK are determined by brown staining of cytoplasm with a nucleus devoid of blue-black (Fos) reaction product. […] Dual labeling is expressed as the percentage of galanin or CCK cells that expressed Fos. […]

| Molecule | lesions of LSt neurons [1] | display of ejaculatory behavior [2] | rats with obvious motor impairment after surgery (excluded) [3] | CAN-SPR optical density ([4]; Substance P receptor-IR around central autonomic nucleus, group in label) | IML-SPR optical density ([4]; Substance P receptor-IR around intermediolateral column, group in label) | SPN-SPR optical density ([4]; Substance P receptor-IR around sacral parasympathetic nucleus, group in label) | CAN-galanin optical density ([4]; galanin-IR around central autonomic nucleus, group in label) | IML-galanin optical density ([4]; galanin-IR around intermediolateral column, group (SAP, SSP-il, SSP-les) in label) | SPN-galanin optical density ([4]; galanin-IR around sacral parasympathetic nucleus, group in label) | average number of intromissions prior to ejaculation [5] | average number of mounts prior to ejaculation [5] | activation of Galanin neurons (Fos) ([6]; 8-OH-DPAT alone, no exposure to female (DPc group)) | Galanin-IR neurons containing Fos-IR ([6]; E1-DP males, after one ejaculation) | mean number of galanin-IR neurons ([6]; two groups (one ejaculation / no female), order of values not stated) |
| --- | --- | --- | --- | --- | --- | --- | --- | --- | --- | --- | --- | --- | --- | --- |
| saporin | no lesions | continue to ejaculate regularly | 7 | 380.26 ± 39.06 pixels (×1,000) | 209.91 ± 30.92 pixels (×1,000) | 392.68 ± 50.65 pixels (×1,000) | 128.84 ± 25.81 pixels (×1,000) | 58.82 ± 12.85 pixels (×1,000) | 137.75 ± 14.99 pixels (×1,000) |  |  |  |  |  |
| CCCN(CCC)C1CCc2cccc(O)c2C1 (centres unmarked) [8-OH-DPAT, 8-hydroxy-2-(di-n-propylamino) tetralin] |  |  |  |  |  |  |  |  |  | 1.33±0.67 | 2.33±1.20 | do not result in activation | 85.55%±1.76 | 33.67±4.06 and 33.33±5.53 |
